Experimental data from the METLIN SMRT retention time set (Domingo-Almenara et al. 2019).

Assay: gradient 5% acetonitrile 3 min, to 50% in 2 min, to 85% in 15 min, held 3 min, 100 µL/min
Conditions: column: Zorbax Extend-C18 2.1 x 50 mm; eluents: water / acetonitrile, 0.1% formic acid
Outline: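 Each retention time is based on an adduct peak selected computationally and verified by manual inspection. Measurements used HPLC–quadrupole time-of-flight mass spectrometry in positive and negative ionization mode on mixtures of ~100 pure standards. Chromatography ran on a Zorbax Extend-C18 column (2.1 × 50 mm, 1.8 μm) at 100 μL/min with water and acetonitrile, each containing 0.1% formic acid, and dead and dwell volumes of 40 μL and 900 μL.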

Compound	RP-LC retention time
CCCS(=O)(=O)N1CCCC(c2nnc(-c3cccs3)o2)C1 (stereo not given)	749 s
CCOc1ccc(C2Cn3nnc(-c4nc(-c5cccc(F)c5)no4)c3CO2)cc1 (stereo not given)	1220 s
Cc1cc(C)nc(SCc2cc(=O)c(OC(=O)c3cccc([N+](=O)[O-])c3C)co2)n1	883 s
CC(=O)Nc1ccc(NC(=O)C2CC(=O)N(c3n[nH]c4cccc(F)c34)C2)cc1 (stereo not given)	634 s
CCn1c(=O)sc2cc(S(=O)(=O)N3CCC(C(=O)NC4CCC(C)CC4)CC3)ccc21 (stereo not given)	967 s
Cc1ccccc1NS(=O)(=O)c1cc(-c2cc(C(F)(F)F)on2)sc1C	1180 s
Cc1cc(C)n(CCNc2nc3c(F)cc(F)cc3s2)n1	732 s
COCCN1C(=O)[C@H]2CN(Cc3cccc4[nH]ccc34)C[C@H]2C1=O	583 s
CC1CCCN(c2nn3c(C(=O)NCCc4c[nH]c5ccccc45)cc(=O)nc3s2)C1 (stereo not given)	838 s
NC(=O)c1cc(N2CCCC2)nc2c(Cl)cccc12	607 s
CCc1ccc(NC(=O)Cn2nc3cc(-c4ccccc4)nc(C)n3c2=O)cc1	899 s
CCCN1C(=O)COc2ccc(-c3csc(NC(=O)c4ccncc4)n3)cc21	816 s
CCc1ccc(NC(=O)N2CCC(CN3CCCC(C)C3)CC2)cc1 (stereo not given)	662 s
COc1ccc2nc3oc(C(=O)NCCCN4CCCC(C)C4)cc3cc2c1 (stereo not given)	934 s
CCOC(=O)c1[nH]c(C)c(CCC(=O)N2CCC(C(=O)NC(C)CC)CC2)c1C (stereo not given)	723 s
CCNc1cc(N2CCC(CCC(=O)NC(C)C)CC2)ncn1	598 s
CCCNC(=O)C12CCC(C)(C(=O)C1)C2(C)C (stereo not given)	657 s
COc1ccc(-c2nc3ncc4c(=O)n(CCc5c[nH]c6ccc(F)cc56)ccc4n3n2)cc1	935 s
CC(=O)c1cccc(Nc2c(C(=O)OC(C)C)cnc3nc(C)ccc23)c1	694 s
COc1ccc(NC(=O)N2CCC(n3c(CC(C)C)nc4cccnc43)CC2)c(OC)c1	676 s
O=C(CN1C(=O)CC(c2cccs2)=Nc2ccccc21)Nc1ccccc1Cl	980 s
CCN1C(=O)C2(CCN(C(=O)c3cc(C)n(C)n3)CC2)c2ccccc21	750 s
O=c1n(Cc2c(F)cccc2Cl)nc2ccc(S(=O)(=O)N3CCCC3)cn12	885 s

Compound	RP-LC retention time
Cc1ccc(-c2nc3cnccn3c2Nc2ccc(C)cc2C)cc1	1070 s
CCn1nccc1C(=O)NC1CCN(c2ncnc3c2CCC3)C1 (stereo not given)	585 s
Cc1ccc(NC(=O)C2CCCN(C(=O)C3Sc4ccccc4NC3=O)C2)cc1 (stereo not given)	741 s
O=c1c2cc(-c3cccs3)nn2cnn1Cc1nc(-c2ccc(OCc3ccccc3)cc2)no1	1220 s
COc1cccc(CNC(=O)Cc2cn(C)c3ncccc23)c1OC	669 s
O=C(NCc1cccnc1)C1=C2CCCN2c2ccc(F)cc2S1(=O)=O	572 s
Cc1[nH]c(C(=O)Nc2cccc(Br)c2)c(C)c1S(=O)(=O)N1CCCC1	971 s
COc1cc(NC(=O)N2CCCC2c2nc(-c3ccccc3OC)no2)cc(OC)c1 (stereo not given)	849 s
CCc1noc(-c2ccnc(-n3ncc(C(=O)NCC(C)C)c3C)c2)n1	931 s
CC(C)c1csc(-c2csc(S(=O)(=O)Nc3ccc(Br)cc3F)c2)n1	1200 s
COc1ccc(F)cc1S(=O)(=O)N1CCN(C2CCN(C)C2=O)CC1 (stereo not given)	550 s
CCC1(O)CCOC2(CCN(Cc3ccncc3F)CC2)C1 (stereo not given)	554 s
Cc1ccccc1NC(=O)N1CCC(c2cc(N)on2)CC1	644 s
CC(C(=O)N1CCN(c2ccccn2)CC1)n1ccc2cc(S(=O)(=O)N3CCCC3)ccc21 (stereo not given)	660 s
Cc1nc(-c2cc(S(=O)(=O)N3CCCCC3)c(C)n2C)sc1C	1140 s
O=C(NC1CCCC1)c1nc(-c2ccnc(N3CCCCC3)c2)no1	763 s
O=C1c2ccccc2S(=O)(=O)N1CC(O)COc1ccc(Cl)cc1Cl (stereo not given)	900 s
CCc1ccccc1NC(=O)C1CCN(S(C)(=O)=O)c2ccccc2O1 (stereo not given)	912 s
O=C(NCc1cccs1)c1coc(NC(=O)C2CC2)n1	614 s
Cc1ccc(CNC(=O)C2(C)Oc3cccnc3N(C)C2=O)cc1 (stereo not given)	806 s
O=C(CCc1nc(CSc2nnc(-c3ccccc3)o2)no1)Nc1ccccc1	863 s
O=C1CCCN1CCCN1C(=O)[C@H]2CN(Cc3ccccc3Cl)C[C@H]2C1=O	596 s
